Where two headings read alike, the source gives them in different places.
Experiments:
TYK2 = details: read-out: In vitro IC50 TYK2, cited from earlier work
[1] = system: IL-4 induced STAT6 phosphorylation in BMDMs from JAK3 Cys905Ser knockin mice; assay: IL-4 induced STAT6 phosphorylation in JAK3 Cys905Ser knockin BMDMs (immunoblot); format: cell-based, mouse; details: for IC50: Mus musculus, BMDM, 0.5 h, 10 ng/ml IL-4 30 min, pSTAT6 Tyr641 immunoblot, two independent experiments
Experimental: (§1) Figure 3 Effect of JAK3 inhibitors on IL-4 induced STAT6 phosphorylation. BMDMs were isolated from wild type and JAK3 Cys905Ser knockin mice. Cells were incubated with the indicated concentrations of inhibitor before stimulation for 30 min with 10 ng/ml IL-4. Cells were lysed and the levels of STAT6 phosphorylated at Tyr641 were assessed by immunoblotting. Levels of ERK1/2 were determined as a loading control.
(§2) Bone marrow derived macrophages (BMDMs) were cultured as described. Briefly, bone marrow was flushed in PBS from the femurs and tibias of mice. Cells were cultured on bacterial grade plastic for 7 days at 37 °C, 5% CO2. Cells were then detached using Versene (Gibco), re-plated on tissue culture plastic in BMDM media (in DMEM supplemented with 10% heat inactivated FBS (Labtech), 2 mM L-glutamine, 100 U/ml penicillin G, 100 μg/ml streptomycin and 0.25 μg/ml amphotericin, 5 ng/ml M-CSF) and used within 48 h. Where indicated cells were stimulated with 10 ng/ml IL-4, 10 ng/ml GM-CSF, 10 ng/ml IL-10 or 10 ng/ml IFNβ. All cytokines were from PeproTech.
(§3) Cells were lysed directly into SDS sample buffer and aliquots run on 10% polyacrylamide gels using standard methods. Proteins were transferred onto nitrocellulose membranes, and specific proteins were detected by immunoblotting. Antibodies against tyrosine phosphorylated STATs were from Cell Signaling Technology (phospho-STAT1 #9167, phospho-STAT3 #9131, phospho-STAT5 #4322 and phospho-STAT6 #9361). The total ERK1/2 antibody used as a loading control was also from cell Signaling Technology (#4695). HRP-conjugated secondary antibodies were obtained from Pierce. Bands were detected using Clarity ECL reagents from BioRad and imaged on a Licor Odyssey Fc system. Quantification was carried out using Licor Image Studio software. After correction for the ERK1/2 levels to account for loading differences, percentage inhibition was calculated relative to the IL-4 stimulated condition. IC50 values were calculated using the same methods as for the in vitro IC50 values.

[2] = system: IL-4 induced STAT6 phosphorylation in wild type BMDMs; assay: Inhibitor washout, IL-4 induced STAT6 phosphorylation, wild type BMDMs; format: cell-based, mouse; details: for inhibition of IL-4 induced STAT6 phosphorylation after inhibitor washout, wild type BMDMs: washed 3 times in PBS, IL-4 30 min to 2 h after washout, 10 μM TL6-144, 100 μM PF-06651600
Experimental: Covalent inhibitors would be predicted to have very slow off rates and therefore inhibition should remain even if the unbound inhibitors are washed out of the cells. To test this, cells were treated with a high concentration of inhibitor for 2 h before being washed 3 times in PBS and then incubated in media without inhibitor for 0.5 to 24 h. If the inhibitor acts via a non-covalent mechanism, inhibition would not be expected to remain following washout from the cells. Ruxolitinib is a non-covalent pan-JAK inhibitor that can inhibit multiple JAK-STAT pathways in macrophages. […] To confirm this was not the case, similar experiments were done in JAK3 Cys905Ser knockin cells. […] Similar experiments were also carried out with PF-06651600. […] As the level of inhibition was lower at 2 h post washout than 30 min the experiment was repeated to look at 4 and 24 h time points for the washout step.
Figure 4 Effect of inhibitor washout on JAK3 inhibition. BMDMs were isolated from wild type and JAK3 Cys905Ser knockin mice. […] The macrophages were then either stimulated with 10 ng/ml IL-4 for 30 min or washed 3 times in PBS and then incubated in media without inhibitor for the indicated times. The cells were then stimulated with IL-4 for 30 min and STAT6 phosphorylation determined by immunoblotting using levels of ERK1/2 as a loading control.
as §2, §3

[3] = system: IL-4 induced STAT6 phosphorylation in wild type BMDMs; assay: IL-4 induced STAT6 phosphorylation in wild type BMDMs (immunoblot); format: cell-based; details: Mus musculus, BMDM, 0.5 h; 10 ng/ml IL-4 30 min, pSTAT6 Tyr641 immunoblot, two independent experiments
Experimental: as §1, §2, §3

EPH-B4 = EPH-B4 (Homo sapiens, UniProt P54760); assay: Selectivity screen EPH-B4; format: biochemical; details: 1 µM inhibitor, mean
Experimental: (§4) For the in vitro kinase assay, JAK3 (5–20 mU diluted in 50 mM Tris pH 7.5, 0.1 mM EGTA, 0.05% β-mercaptoethanol, 1 mg/ml BSA) was assayed against PDKtide ([…]) in a final volume of 25.5 µl containing 50 mM Tris pH 7.5, 0.1 mM EGTA, 0.05% β-mercaptoethanol, 100 µM substrate peptide, 10 mM magnesium acetate and 0.02 mM [33P-γ-ATP] (50–1000 cpm/pmole) and incubated for 30 min at room temperature. Assays were started by the addition of the ATP and stopped by addition of 5 µl of 0.5 M (3%) orthophosphoric acid and then harvested onto P81 Unifilter plates with a wash buffer of 50 mM orthophosphoric acid. To determine the Km for ATP, assays were run using 1, 5, 10, 20, 50, 100, 200, 400, 500 μM ATP and Km derived by non-linear regression fitting to the Michaelis–Menten equation v = Vmax[S]/(Km + [S]). IC50 values for inhibitors via non-linear regression using a parameter model: Y = Bottom + (Top–Bottom)/(1 + (IC50/X)^HillSlope). Non-linear regression was carried out in Prism (version 8). In vitro selectivity screen was carried out as described previously.

EPH-B1 = EPH-B1 (Homo sapiens, UniProt P54762); assay: Selectivity screen EPH-B1; format: biochemical; details: 1 µM inhibitor, mean
Experimental: as §4

PKD1 = PKD1 (Homo sapiens, UniProt Q15139); assay: Selectivity screen PKD1; format: biochemical; details: 1 µM inhibitor, mean
Experimental: as §4

FGF-R1 = FGF-R1 (Homo sapiens, UniProt P11362); assay: Selectivity screen FGF-R1; format: biochemical; details: 1 µM inhibitor, mean
Experimental: as §4

DDR2 = DDR2 (Homo sapiens, UniProt Q16832); assay: Selectivity screen DDR2; format: biochemical; details: 1 µM inhibitor, mean
Experimental: as §4

S6K1 = S6K1 (Homo sapiens, UniProt P23443); assay: Selectivity screen S6K1; format: biochemical; details: 1 µM inhibitor, mean
Experimental: as §4

MARK4 = MARK4 (Homo sapiens, UniProt Q96L34); assay: Selectivity screen MARK4; format: biochemical; details: 1 µM inhibitor, mean
Experimental: as §4

TTK = TTK (Homo sapiens, UniProt P33981); assay: Selectivity screen TTK; format: biochemical; details: 1 µM inhibitor, mean
Experimental: as §4

JNK1 = JNK1 (Homo sapiens, UniProt P45983); assay: Selectivity screen JNK1; format: biochemical; details: 1 µM inhibitor, mean
Experimental: as §4

NEK2a = NEK2a (Homo sapiens, UniProt P51955); assay: Selectivity screen NEK2a; format: biochemical; details: 1 µM inhibitor, mean
Experimental: as §4

BRSK1 = BRSK1 (Homo sapiens, UniProt Q8TDC3); assay: Selectivity screen BRSK1; format: biochemical; details: 1 µM inhibitor, mean
MLK1 = MLK1 (Homo sapiens, UniProt P80192); assay: Selectivity screen MLK1; format: biochemical; details: 1 µM inhibitor, mean
Experimental: as §4

[4] = inhibitor 2 h, 0.5 μM Ruxolitinib

Chain of MARK4 (Q96L34 whole entry): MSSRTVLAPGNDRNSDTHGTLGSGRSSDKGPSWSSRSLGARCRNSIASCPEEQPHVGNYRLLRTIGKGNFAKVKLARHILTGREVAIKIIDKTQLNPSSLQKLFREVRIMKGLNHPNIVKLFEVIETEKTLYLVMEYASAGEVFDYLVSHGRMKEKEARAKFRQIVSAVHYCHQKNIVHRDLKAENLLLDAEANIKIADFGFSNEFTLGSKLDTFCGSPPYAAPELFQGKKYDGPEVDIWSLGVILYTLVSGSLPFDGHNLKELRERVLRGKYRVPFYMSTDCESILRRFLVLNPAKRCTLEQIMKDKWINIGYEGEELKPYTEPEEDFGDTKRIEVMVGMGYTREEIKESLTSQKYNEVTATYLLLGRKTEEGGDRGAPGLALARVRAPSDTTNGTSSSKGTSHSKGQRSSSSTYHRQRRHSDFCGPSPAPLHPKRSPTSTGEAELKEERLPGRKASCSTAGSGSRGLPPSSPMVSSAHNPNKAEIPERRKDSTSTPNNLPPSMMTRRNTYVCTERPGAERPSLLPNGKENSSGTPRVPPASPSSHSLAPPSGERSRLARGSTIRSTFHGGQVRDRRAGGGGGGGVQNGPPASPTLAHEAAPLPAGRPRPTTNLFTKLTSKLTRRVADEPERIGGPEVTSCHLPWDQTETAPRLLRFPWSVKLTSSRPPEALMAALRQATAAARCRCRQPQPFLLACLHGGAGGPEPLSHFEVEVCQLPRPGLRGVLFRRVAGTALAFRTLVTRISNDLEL
Chain of MLK1 (P80192 whole entry): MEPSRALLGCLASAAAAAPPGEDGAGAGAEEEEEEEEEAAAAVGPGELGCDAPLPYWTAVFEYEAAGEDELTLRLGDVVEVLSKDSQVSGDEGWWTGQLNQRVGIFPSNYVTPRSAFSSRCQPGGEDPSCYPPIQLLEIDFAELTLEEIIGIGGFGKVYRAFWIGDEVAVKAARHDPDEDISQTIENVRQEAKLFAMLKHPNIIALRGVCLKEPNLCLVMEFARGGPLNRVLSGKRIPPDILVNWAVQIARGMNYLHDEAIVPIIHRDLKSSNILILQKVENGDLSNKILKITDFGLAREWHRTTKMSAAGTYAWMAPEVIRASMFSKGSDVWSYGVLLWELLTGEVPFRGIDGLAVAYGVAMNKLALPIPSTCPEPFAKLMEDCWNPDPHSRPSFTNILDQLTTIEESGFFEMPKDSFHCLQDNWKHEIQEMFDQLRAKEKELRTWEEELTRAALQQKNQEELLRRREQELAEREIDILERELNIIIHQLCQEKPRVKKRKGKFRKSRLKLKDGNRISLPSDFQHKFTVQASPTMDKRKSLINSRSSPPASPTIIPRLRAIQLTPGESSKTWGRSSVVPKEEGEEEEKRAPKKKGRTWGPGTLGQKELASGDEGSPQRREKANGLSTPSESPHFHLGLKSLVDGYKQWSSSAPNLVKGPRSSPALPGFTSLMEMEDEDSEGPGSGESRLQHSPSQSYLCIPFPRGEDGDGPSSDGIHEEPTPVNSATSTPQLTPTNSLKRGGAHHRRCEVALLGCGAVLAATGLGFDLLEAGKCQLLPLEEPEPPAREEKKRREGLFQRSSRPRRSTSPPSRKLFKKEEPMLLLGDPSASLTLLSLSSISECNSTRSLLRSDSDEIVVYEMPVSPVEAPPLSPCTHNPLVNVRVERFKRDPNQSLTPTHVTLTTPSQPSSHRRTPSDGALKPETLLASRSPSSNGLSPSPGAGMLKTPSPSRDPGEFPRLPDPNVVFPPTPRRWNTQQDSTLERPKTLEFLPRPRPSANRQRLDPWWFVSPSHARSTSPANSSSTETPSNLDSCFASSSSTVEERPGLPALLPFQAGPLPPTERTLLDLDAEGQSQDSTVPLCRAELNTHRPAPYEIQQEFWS
Chain of JNK1 (P45983 whole entry): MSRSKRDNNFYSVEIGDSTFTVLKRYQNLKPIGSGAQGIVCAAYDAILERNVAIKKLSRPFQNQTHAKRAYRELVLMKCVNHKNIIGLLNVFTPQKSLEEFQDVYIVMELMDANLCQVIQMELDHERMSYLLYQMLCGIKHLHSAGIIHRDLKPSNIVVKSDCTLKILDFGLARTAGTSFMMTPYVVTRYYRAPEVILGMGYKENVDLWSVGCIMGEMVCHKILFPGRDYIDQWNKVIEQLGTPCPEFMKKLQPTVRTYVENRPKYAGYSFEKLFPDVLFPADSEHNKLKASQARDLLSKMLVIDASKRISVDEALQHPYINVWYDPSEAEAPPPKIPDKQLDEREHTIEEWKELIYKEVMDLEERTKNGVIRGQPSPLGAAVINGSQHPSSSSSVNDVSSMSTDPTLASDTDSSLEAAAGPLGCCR
Chain of S6K1 (P23443 whole entry): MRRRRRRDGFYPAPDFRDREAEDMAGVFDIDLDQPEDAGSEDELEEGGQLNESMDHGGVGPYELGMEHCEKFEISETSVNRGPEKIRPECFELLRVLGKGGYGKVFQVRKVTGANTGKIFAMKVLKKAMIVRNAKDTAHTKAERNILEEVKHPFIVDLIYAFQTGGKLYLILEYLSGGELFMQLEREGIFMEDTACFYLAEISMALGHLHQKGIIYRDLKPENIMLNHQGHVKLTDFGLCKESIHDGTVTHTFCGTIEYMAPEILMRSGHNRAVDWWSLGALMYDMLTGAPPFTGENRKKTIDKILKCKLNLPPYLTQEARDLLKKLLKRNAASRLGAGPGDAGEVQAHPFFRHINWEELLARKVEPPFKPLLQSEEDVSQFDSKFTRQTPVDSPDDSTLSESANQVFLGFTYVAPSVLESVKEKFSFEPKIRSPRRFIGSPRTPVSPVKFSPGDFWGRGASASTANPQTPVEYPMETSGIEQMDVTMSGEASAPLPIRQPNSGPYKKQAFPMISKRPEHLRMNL
Chain of EPH-B4 (P54760 16-987): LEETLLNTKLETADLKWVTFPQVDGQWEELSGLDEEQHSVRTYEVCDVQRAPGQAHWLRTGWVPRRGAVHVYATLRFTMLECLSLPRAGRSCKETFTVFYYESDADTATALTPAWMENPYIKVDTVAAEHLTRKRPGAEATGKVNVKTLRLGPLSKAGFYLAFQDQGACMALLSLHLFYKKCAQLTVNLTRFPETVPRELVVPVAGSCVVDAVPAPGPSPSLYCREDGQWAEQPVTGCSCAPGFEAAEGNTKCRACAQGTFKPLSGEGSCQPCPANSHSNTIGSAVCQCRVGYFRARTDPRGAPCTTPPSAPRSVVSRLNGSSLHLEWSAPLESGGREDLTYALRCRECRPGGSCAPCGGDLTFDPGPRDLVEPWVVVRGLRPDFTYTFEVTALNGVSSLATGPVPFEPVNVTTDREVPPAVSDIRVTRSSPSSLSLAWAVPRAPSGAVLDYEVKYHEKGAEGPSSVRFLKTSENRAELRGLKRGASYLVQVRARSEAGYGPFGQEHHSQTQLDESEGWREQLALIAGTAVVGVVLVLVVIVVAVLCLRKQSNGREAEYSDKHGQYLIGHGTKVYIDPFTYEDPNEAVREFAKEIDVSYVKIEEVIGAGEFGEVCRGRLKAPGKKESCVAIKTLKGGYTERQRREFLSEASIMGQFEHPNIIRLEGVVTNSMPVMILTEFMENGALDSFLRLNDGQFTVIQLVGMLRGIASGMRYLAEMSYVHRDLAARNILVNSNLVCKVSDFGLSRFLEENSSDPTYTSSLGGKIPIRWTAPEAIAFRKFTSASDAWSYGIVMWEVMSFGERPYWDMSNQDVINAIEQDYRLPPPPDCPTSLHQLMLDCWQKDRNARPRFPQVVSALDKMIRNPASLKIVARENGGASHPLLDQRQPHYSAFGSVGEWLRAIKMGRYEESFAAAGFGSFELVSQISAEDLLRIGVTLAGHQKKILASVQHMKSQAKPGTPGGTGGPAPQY
Chain of PKD1 (Q15139 whole entry): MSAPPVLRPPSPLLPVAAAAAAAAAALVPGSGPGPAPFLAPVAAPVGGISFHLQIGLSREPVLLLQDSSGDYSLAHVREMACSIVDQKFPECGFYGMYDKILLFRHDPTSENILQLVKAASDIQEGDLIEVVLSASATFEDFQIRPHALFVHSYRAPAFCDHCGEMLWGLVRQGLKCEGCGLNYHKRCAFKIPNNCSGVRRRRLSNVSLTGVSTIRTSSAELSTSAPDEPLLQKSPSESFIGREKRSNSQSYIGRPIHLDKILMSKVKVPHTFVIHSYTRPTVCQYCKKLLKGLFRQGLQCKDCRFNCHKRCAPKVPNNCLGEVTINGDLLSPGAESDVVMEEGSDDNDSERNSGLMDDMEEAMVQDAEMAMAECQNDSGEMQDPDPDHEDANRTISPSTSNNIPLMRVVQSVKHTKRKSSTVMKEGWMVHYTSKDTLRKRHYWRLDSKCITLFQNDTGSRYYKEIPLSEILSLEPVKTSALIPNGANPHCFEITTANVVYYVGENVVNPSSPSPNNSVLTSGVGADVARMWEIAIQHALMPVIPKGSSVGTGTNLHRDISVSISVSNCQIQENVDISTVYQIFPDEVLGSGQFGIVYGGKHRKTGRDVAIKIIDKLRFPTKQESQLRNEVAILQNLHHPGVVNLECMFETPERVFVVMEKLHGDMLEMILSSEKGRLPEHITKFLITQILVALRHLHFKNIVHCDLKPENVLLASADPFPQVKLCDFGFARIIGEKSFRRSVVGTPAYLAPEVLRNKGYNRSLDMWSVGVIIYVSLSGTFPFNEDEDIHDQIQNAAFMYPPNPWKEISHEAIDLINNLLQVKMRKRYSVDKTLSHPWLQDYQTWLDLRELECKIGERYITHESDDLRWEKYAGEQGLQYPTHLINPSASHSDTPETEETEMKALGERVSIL

Row | SMILES | IC50 (TYK2; ATP 12 μM) [nM] | IC50 [1] [nM] | inhibition of IL-4 induced STAT6 phosphorylation 24 h after inhibitor washout, wild type BMDMs ([2]; 100 μM PF-06651600 for 2 h, washout, 24 h time point) | inhibition of IL-4 induced STAT6 phosphorylation after inhibitor washout, wild type BMDMs [2, 4] | IC50 [3] [nM] | activity remaining in the presence of the inhibitor: EPH-B4 (EPH-B4) | IC50 (TYK2; ATP 25 μM) [nM] | inhibition of IL-4 induced STAT6 phosphorylation, JAK3 Cys905Ser knockin BMDMs ([1]; 10 μM inhibitor) | activity remaining in the presence of the inhibitor: EPH-B1 (EPH-B1) | block of IL-4 induced STAT6 phosphorylation without washout, wild type BMDMs ([2]; inhibitor 2 h, no washout, 0.5 μM Ruxolitinib, 10 μM TL6-144) | activity remaining in the presence of the inhibitor: PKD1 (PKD1) | activity remaining in the presence of the inhibitor: FGF-R1 (FGF-R1) | activity remaining in the presence of the inhibitor: DDR2 (DDR2) | activity remaining in the presence of the inhibitor: S6K1 (S6K1) | activity remaining in the presence of the inhibitor: MARK4 (MARK4) | activity remaining in the presence of the inhibitor: TTK (TTK) | activity remaining in the presence of the inhibitor: JNK1 (JNK1) | activity remaining in the presence of the inhibitor: NEK2a (NEK2a) | activity remaining in the presence of the inhibitor: BRSK1 (BRSK1) | activity remaining in the presence of the inhibitor: MLK1 (MLK1)
1 | C=CC(=O)N1C[C@H](Nc2ncnc3[nH]ccc23)CC[C@@H]1C [PF-06651600, 1-((2S,5R)-5-((7H-Pyrrolo[2,3-d]pyrimidin-4-yl)amino)-2-methylpiperidin-1-yl)prop-2-en-1-one, reference compound] | > 10000 | > 10000 | Some inhibition was retained | retained | 560 | – | – | – | – | – | – | – | – | – | – | – | – | – | – | –
2 | C=CC(=O)Nc1cccc(CNc2nc(Nc3ccc(N4CCN(C)CC4)cc3OC)ncc2Cl)c1 [TL6-144] | – | […] | – | much lower than in control cells | 550 | 83 | […] | did not inhibit | 85 | completely blocked | 46 | 44 | 83 | 90 | 76 | 96 | 83 | 96 | 103 | 20
3 | C=CC(=O)Nc1cccc(CNc2nc(Nc3ccc(N4CCOCC4)cc3)ncc2Cl)c1 [TL8-52] | – | 540 | – | – | 100 | 104 | 320 | – | 75 | – | 86 | 49 | 76 | 87 | 28 | 49 | 104 | 135 | 86 | 3
